# From patent US20030041357A1, “Herbicide resistant plants” (priority 1996, published 2003)
# What was measured:
# [1] = test system: pDV6 plants expressing both glyphosate resistance genes and GST; assay: Pre-em/post-em herbicide treatment of DV6 plants (Table 1); design: species or system Tobacco; settings: in vivo
# [2] = target: GST-27 (leaf extracts of GST-27 expressing tobacco) (Zea mays, UniProt P46420); assay: In vitro HPLC assay of GST activity against herbicide substrates; type: biochemical; settings: GST-27 tobacco extracts, 5 mM glutathione, 20 ppm herbicide
# [3] = test system: wild-type tobacco; assay: Rooting assay on MS medium with herbicide; type: in vivo, Nicotiana tabacum cv Samsum; settings: for root growth of explants: 3 weeks, 10, 20, 40 ppm acetochlor/metolachlor, 20, 40, 100 ppm alachlor
# [4] = test system: GST-27 tobacco lines; assay: Rooting assay on MS medium with herbicide; type: in vivo, Nicotiana tabacum cv Samsum
# [5] = test system: wild type tomato (cv Ailsa Craig); assay: PDS inhibitor herbicide tolerance trial; type: in vivo
# [6] = test system: transgenic tomato over-expressing the Erwinia uredovora crt1 (PDS) gene; assay: PDS inhibitor herbicide tolerance trial; type: in vivo; settings: for Phytotoxity at 27 PAT: Transgenic tomato
# [7] = test system: maize seedlings which contain the PAT gene; assay: Glufosinate spray of maize seedlings; type: in vivo; settings: commercial mix, about 0.1 to 1% active ingredient
# [8] = test system: transgenic maize seedlings expressing GST-27; assay: Acetochlor-treated soil seedling test; type: in vivo; settings: soil treated with 2,000 to 8,000 grams per hectare, 7 days
# [9] = test system: non-transgenic maize seedlings; assay: Acetochlor-treated soil seedling test; type: in vivo; settings: soil treated with 2,000 to 8,000 grams per hectare, absence of safener, 7 days
# [10] = test system: Wild Type tobacco; assay: Herbicide trial of DV6/HPPD cross (Example 10); type: in vivo; settings: 75 g/ha
# [11] = test system: DV6/HPPD tobacco; assay: Herbicide trial of DV6/HPPD cross (Example 10); type: in vivo; settings: 75 g/ha
# [12] = test system: transgenic tobacco plants expressing GST-27; assay: Pre-emergence glasshouse herbicide trial; type: in vivo, Nicotiana tabacum cv Samsum; settings: 300 and 350 g/ha in 5% JF 5969
# [13] = test system: transgenic tobacco plants expressing GST-27; assay: Post-emergence glasshouse herbicide trial; type: in vivo, Nicotiana tabacum cv Samsum; settings: sprayed 16 days after sowing, 5% JF 5969
# [14] = test system: wild type controls; assay: Growth on herbicide-containing tissue culture medium; type: in vivo, Tobacco; settings: 0.01 and 0.05 mM glyphosate; 10 and 40 ppm alachlor
# [15] = test system: primary transformants from pDV6-Bin; assay: as above; type: in vivo, Tobacco; settings: a number of transgenics; 0.01 and 0.05 mM glyphosate; 10 and 40 ppm alachlor
# [16] = line 2, pilot experiment, 2 weeks
# [17] = line 6, pilot experiment, 2 weeks
# Chain of GST-27 (leaf extracts of GST-27 expressing tobacco) (P46420 whole entry): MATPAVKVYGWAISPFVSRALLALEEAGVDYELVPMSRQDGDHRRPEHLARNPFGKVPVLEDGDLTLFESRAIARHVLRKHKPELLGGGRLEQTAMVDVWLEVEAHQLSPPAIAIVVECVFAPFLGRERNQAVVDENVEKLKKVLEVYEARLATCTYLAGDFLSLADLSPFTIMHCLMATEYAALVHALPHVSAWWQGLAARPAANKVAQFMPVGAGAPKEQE
compound,measurement,setting,value
CCCN(CCC)C(=O)SCC [EPTC],"% Phytotoxicity (mean, 21 DAT)",[1],0%
"CCc1cccc(C)c1N(C(=O)CCl)C(C)COC (stereo not shown) [Metolachlor, metolachlor]",GST activity against herbicide substrate (HPLC),[2],lowest activity
same,root growth of explants,[3],produces very few tiny roots at 10 and 20 ppm
same,rooting concentration limit,"[4]; GST-27 line 17, 3 weeks",more than 40 ppm
same,root growth of explants,"[4]; GST-27 lines 6 and 17, 3 weeks",produce short roots
O=C1C(Cl)C(CCl)CN1c1cccc(C(F)(F)F)c1 (stereo not shown) [Compound I],Phytotoxity at 27 PAT,[5]; 333 g/ha,0%
same,Phytotoxity at 27 PAT,[5]; 1000 g/ha,23.3%
same,Phytotoxity at 27 PAT,[5]; 3000 g/ha,100%
same,Phytotoxity at 27 PAT,[5]; 9000 g/ha,100%
same,Phytotoxity at 27 PAT,[6]; 333 g/ha,0%
same,Phytotoxity at 27 PAT,[6]; 1000 g/ha,0%
same,Phytotoxity at 27 PAT,[6]; 3000 g/ha,0%
same,Phytotoxity at 27 PAT,[6]; 9000 g/ha,0%
same,rate to which transgenic tomatoes are highly tolerant,[6]; transgenic tomatoes,up to 9 kg/ha
CP(=O)(O)CCC(N)C(=O)O (stereo not shown) [glufosinate],resistance of seedlings to spray,[7],"either completely resistant to glufosinate, or are relatively tolerant of the herbicide"
COc1nn(-c2cccc(C(F)(F)F)c2)/c(=N\C(=O)OC(C)C)s1 [Compound II],Phytotoxity at 27 PAT,[5]; 37 g/ha,3.3%
same,Phytotoxity at 27 PAT,[5]; 111 g/ha,13.3%
same,Phytotoxity at 27 PAT,[5]; 333 g/ha,20%
same,Phytotoxity at 27 PAT,[5]; 1000 g/ha,100%
same,Phytotoxity at 27 PAT,[6]; 111 g/ha,3.3%
same,Phytotoxity at 27 PAT,[6]; 333 g/ha,0%
same,Phytotoxity at 27 PAT,[6]; 1000 g/ha,3.3%
same,Phytotoxity at 27 PAT,[6]; 3000 g/ha,0%
CCC1CN(c2cccc(C(F)(F)F)c2)C(=O)C1C(=O)NC (stereo not shown) [Compound III],Phytotoxity at 27 PAT,[5]; 37 g/ha,0%
same,Phytotoxity at 27 PAT,[5]; 111 g/ha,8.3%
same,Phytotoxity at 27 PAT,[5]; 333 g/ha,56.7%
same,Phytotoxity at 27 PAT,[5]; 1000 g/ha,100%
same,Phytotoxity at 27 PAT,[6]; 111 g/ha,0%
same,Phytotoxity at 27 PAT,[6]; 333 g/ha,0%
same,Phytotoxity at 27 PAT,[6]; 1000 g/ha,10%
same,Phytotoxity at 27 PAT,[6]; 3000 g/ha,3.3%
"CCOCN(C(=O)CCl)c1c(C)cccc1CC [Acetochlor, acetochlor]",GST activity against herbicide substrate (HPLC),[2],lowest activity
same,root growth of explants,[3],do not show any rooting
same,root growth of explants,"[4]; GST-27 lines 6 and 17, 3 weeks",produce few roots at 10 and 20 ppm
same,root growth of explants,"[4]; lines 5 and 12, 3 weeks",not as resistant
same,seedling damage,[8],"little, if any damage"
same,seedling damage,[9],very substantial damage
same,"phytotoxicity score, 21 DAT",[10]; Wild Type Rep a,40
same,"phytotoxicity score, 21 DAT",[10]; Wild type Rep b,100
same,"phytotoxicity score, 21 DAT",[11]; DV6/HPPD Rep a,0
same,"phytotoxicity score, 21 DAT",[11]; DV6/HPPD Rep b,0
"CCc1cccc(CC)c1N(COC)C(=O)CCl [Alachlor, alachlor]",root growth of explants,[3],does not produce any root
same,concentration from which an effect of the herbicide is observable,"[3]; pilot experiment, 2 weeks",≥ 1 ppm
same,concentration from which plants do not produce new leaves,"[3]; pilot experiment, 2 weeks",≥ 10 ppm
same,concentration up to which roots are produced,"[3]; pilot experiment, 2 weeks",up to 5 ppm
same,concentration up to which roots are produced,"[4]; GST-27 lines 6 and 17, 3 weeks",≤ 40 ppm
same,root growth of explants,"[4]; Lines 9 and 16, 20 and 40 ppm, 3 weeks",do not produce any roots
same,concentration from which an effect of the herbicide is observable,[4]; [16],≥ 20 ppm
same,concentration up to which roots are produced,[4]; [16],up to 10 ppm
same,concentration from which an effect of the herbicide is observable,[4]; [17],≥ 40 ppm
same,concentration up to which roots are produced,[4]; [17],≤ 20 ppm
same,resistance to pre-emergent application (germination scored after 3 weeks),[12],resistant
same,resistance to post-emergent spray (damage scored after 3 weeks),[13],resistant
same,growth on tissue culture medium,[14],fail to
same,growth on tissue culture medium,[15],grow successfully
